Source: article PMC11337160, “Chirality and pH Influence the Self-Assembly of Antimicrobial Lipopeptides with Diverse Nanostructures” (ACS Applied Bio Materials, 2024)
In brackets after ≈: the same amount, converted by molar mass. Non-standard residues stand in square brackets, D forms with d. Residues, ends and D or L forms follow the SMILES beside them. *: point of attachment. Palmitoyl = CCCCCCCCCCCCCCCC(=O)*

Tests used:
S. aureus = settings: MIC values were reported previously; cited from earlier work
Description: Table 1 Antimicrobial, Cytotoxic, and Selectivity Index Activities of Lipopeptides ^a | column: MIC (μg/mL) / S. aureus

Escherichia coli K12 = assay type: cell-based; settings: K12, 18 h
Method: (§1) Two Gram-negative strains (Escherichia coli K12 and Salmonella enterica NCTC 5188) and one Gram-positive strain (Staphylococcus aureus ATCC 12600) were employed to evaluate the potential bactericidal activity of tested lipopeptides. A single colony from each strain, pre-streaked onto an LB (lysogeny broth) agar plate, was inoculated into 5 mL of LB broth and incubated at 37 °C with shaking (250 rpm) for 18 h. Then, the bacterial culture was adjusted to 5 × 10^6 CFU mL^–1 mid-log phase in Mueller-Hinton broth (MHB), and aliquots were transferred to individual wells of a U-bottom 96-well microplate with increasing concentrations of lipopeptides (0–1000 μg mL^–1). Included positive and negative controls consisted of 0.97 μg mL^–1 ciprofloxacin or 1× PBS in MHB, respectively. After 18 h of incubation at 37 °C, 10 μL from each well was spot-inoculated onto LB agar and plates were further incubated at 37 °C overnight to assess the MBC which refers to the lowest concentration of an antibacterial agent required to kill bacteria (here denoted by colony growth on the plate).
(§2) Figure 9 Determination of MBC of lipopeptides P1, P1D, P2, and P2D. 10 μL aliquots from broth microdilution plates were spot-inoculated onto LB agar plates. The MBC refers to the lowest concentration of an antibacterial agent required to completely kill bacteria shown by the lack of colony formation. […] Positive control (+) 0.97 μg mL^–1 ciprofloxacin; negative control (−) 1X PBS.

[1] = system: Staphylococcus aureus ATCC 12600; assay type: cell-based; settings: ATCC 12600, 18 h
Method: as §1, §2

[2] = Critical aggregation concentration (CAC) by Thioflavin T fluorescence; assay type: physicochemical; settings: ThT fluorescence probe (5 × 10^–4 wt % ThT), aqueous solution pH 8, 25 °C, λex 440 nm, emission 487 nm, breakpoint of I/I0 versus concentration
Method: For the fluorescence experiments, a Varian Cary Eclipse spectrofluorometer was used, and the samples were placed in 4 mm inner-width quartz cuvettes. For experimental settings, excitation and emission bandwidths of 2.5 nm were used. All the experiments were carried out at 25 °C. The CAC value for all the samples was determined by fluorescence experiments with Thioflavin T (ThT). ThT is well known to bind to amyloid fibrils, and can be used to determine CAC values.[44]−[46] First a stock solution (5 × 10^–4 wt %) ThT solution was prepared and using this solution, various concentrations of samples were prepared. The scan of the fluorescence spectra (λex = 440 nm) was taken from 460 to 670 nm.
The CAC value of the samples was calculated by plotting I/I0 versus concentration (in wt %). Here I0 is the maximum intensity for the control, i.e., ThT solution without the sample, and I signifies the maximum fluorescence intensity of ThT at a given concentration of lipopeptide.
To determine the CAC values of these lipopeptides, fluorescence probe assays using Thioflavin T (ThT) were performed, this dye being sensitive to the formation of β-sheet structures.[44]−[46] Emission spectra of the four lipopeptides were collected at different concentrations after excitation at 440 nm. At higher concentrations, an emission peak at 487 nm is visible. […] The lower CAC values for P2 and P2D are due to the higher hydrophobicity of tryptophan compared to tyrosine. […] However, since aggregation at the two different pH values gives rise to distinct nanostructures, this may be coincidental.

E. coli [3] = settings: MIC values were reported previously; cited from earlier work
Description: Table 1 Antimicrobial, Cytotoxic, and Selectivity Index Activities of Lipopeptides ^a | column: MIC (μg/mL) / E. coli

E. coli [4] = assay: Live/Dead staining, membrane integrity (epifluorescence); assay type: cell-based; settings: two-fold MIC of lipopeptide, 1 h at 37 °C, compared to P1 and P1D
Description: A bacteria Live/Dead staining kit (PromoKine) was employed to gain insight into the possible membrane disruption activity of tested lipopeptides. In summary, we used two color fluorescence dyes with varying ability to cross the cytoplasmatic membranes of bacteria. DMAO is a green-fluorescent nucleic acid dye which stains the cell membranes of both live and dead bacteria, while the red fluorescing EthD-III dye selectively stains dead bacteria with compromised membranes. With appropriately calculated volumes of dyes, live viable bacterial cells fluoresce green whilst dead compromised cells fluoresce red. For this assessment, a total of 5 × 10^6 mL^–1 exponential phase bacterial cells were incubated with two-fold MIC of lipopeptides for 1 h at 37 °C. Negative and positive controls consisted respectively of the addition of PBS and Triton-X100 (1%) to replace lipopeptides. Afterwards, the sample was centrifuged at 1000g for 10 min. The pellet was resuspended in 100 μL of 0.85% buffered NaCl with the epifluorescence dyes, following the kit instructions, and incubated for 15 min at room temperature. The samples were examined under a Nikon Eclipse Ti2 inverted microscope.
Figure 10 Membrane permeabilization of E. coli (A) and S. aureus (B) was observed through epifluorescence microscopy. […]

S. enterica = settings: MIC values were reported previously; cited from earlier work
Description: Table 1 Antimicrobial, Cytotoxic, and Selectivity Index Activities of Lipopeptides ^a | column: MIC (μg/mL) / S. enterica

[5] = system: Salmonella enterica NCTC 5188; assay: Minimum bactericidal concentration (MBC); assay type: cell-based; settings: 5 × 10^6 CFU/mL in MHB, lipopeptide 0-1000 μg/mL, 18 h at 37 °C, 10 μL spot-inoculated onto LB agar, overnight 37 °C
Method: as §1, §2

[6] = Cryo-TEM imaging of self-assembled nanostructures; assay type: physicochemical; settings: 1 wt % aqueous solution, pH 8
Method: The Cryo-TEM imaging was performed using a field emission cryo-electron microscope (JEOL JEM-3200FSC), operating at 200 kV. To take the TEM images bright field mode with a zero-loss energy filter (omega type) was used, with a slit width of 20 eV. A Gatan UltraScan 4000 CCD camera was used to record the micrographs. During the entire experiment, the sample was kept at −187 °C. An automated FEI Vitrobot device was used to blot and vitrify samples on Quantifoil 3.5:1 holey carbon copper grids with a hole size of 3.5 μm. Before taking the images, grids were first plasma cleaned using a Gatan Solarus 9500 plasma cleaner, followed by transferring to the environmental chamber of a FEI Vitrobot at room temperature and 100% humidity. For sample spotting on the grid, 3 μL of sample solution was taken and spread on the grid. It was blotted twice and then vitrified in a 1:1 mixture of liquid ethane and propane at a temperature of −180 °C. The grids with vitrified sample solution were maintained at liquid nitrogen temperature and then cryo-transferred to the microscope.
The self-assembled nanostructure of these lipopeptides at acidic pH was investigated at the lower pH of 4.6 in our recent paper,[43] and here we report the unexpected observation of distinct self-assembled nanostructure of these lipopeptides at a higher pH. For cryo-TEM imaging at basic pH, 1 wt % aqueous solution of lipopeptides at pH 8 were prepared, this concentration being above the measured CAC values for these lipopeptides. […] In contrast, the TEM images of all the lipopeptides at pH 4.6 show small spherical micelles with a mean diameter of 4–9 nm (as reported previously,[43] with additional images in Figure S5).

Structure (SMILES) | MIC S. aureus (S. aureus) [µg/mL] | MBC E. coli (Escherichia coli K12) [µg/mL] | MBC S. aureus [1] [µg/mL] | CAC (critical aggregation concentration) [2] [wt %] | MIC E. coli (E. coli [3]) [µg/mL] | formation of bacterial cell aggregates, E. coli (E. coli [4]) | MIC S. enterica (S. enterica) [µg/mL] | MBC S. enterica [5] [µg/mL] | mean diameter of nanostructure (cryo-TEM) [6] [nm] | self-assembled nanostructure (cryo-TEM) [6]
CCCCCCCCCCCCCCCC(=O)N[C@@H](Cc1c[nH]c2ccccc12)C(=O)N[C@H](CCCCN)C(=O)N[C@H](CCCCN)C(N)=O [P2D] (Palmitoyl-Trp-[dK]-[dK]-NH2) | 31.25 to 62.5 | 62.5 (≈ 89.5 µM) | 62.5 (≈ 89.5 µM) | 0.026 ± 0.004 | 31.25 to 62.5 | cell aggregates (clusters) was observed | 62.5 (≈ 89.5 µM) | 125 (≈ 179 µM) | 32.8 ± 4.5 | nanotube structures
CCCCCCCCCCCCCCCC(=O)N[C@@H](Cc1c[nH]c2ccccc12)C(=O)N[C@@H](CCCCN)C(=O)N[C@@H](CCCCN)C(N)=O [P2] (Palmitoyl-Trp-Lys-Lys-NH2) | 31.25 to 62.5 | 250 (≈ 358 µM) | 250 (≈ 358 µM) | 0.026 ± 0.004 | 15.63 to 62.5 | cell aggregates (clusters) was observed | 62.5 to 250 | 250 (≈ 358 µM) | 6.4 ± 2 | long intertwined nanofibers
CCCCCCCCCCCCCCCC(=O)N[C@@H](Cc1ccc(O)cc1)C(=O)N[C@@H](CCCCN)C(=O)N[C@@H](CCCCN)C(N)=O [P1] (Palmitoyl-Tyr-Lys-Lys-NH2) | 31.25 to 62.5 | 62.5 (≈ 92.6 µM) | 62.5 (≈ 92.6 µM) | 0.040 ± 0.003 | 15.63 to 31.25 |  | 31.25 to 62.5 | 125 (≈ 185 µM) | 11.7 ± 3.3 | long intertwined nanofibers
CCCCCCCCCCCCCCCC(=O)N[C@@H](Cc1ccc(O)cc1)C(=O)N[C@H](CCCCN)C(=O)N[C@H](CCCCN)C(N)=O [P1D] (Palmitoyl-Tyr-[dK]-[dK]-NH2) | 31.25 (≈ 46.3 µM) | 62.5 (≈ 92.6 µM) | 250 (≈ 370 µM) | 0.034 ± 0.005 | 15.63 to 31.25 |  | 31.25 (≈ 46.3 µM) | 125 (≈ 185 µM) |  | twisted nanotape structures of variable width
